Like-named read-outs stand apart in the source and are kept apart here.
Tests used:
[1] = test system: wheat leaf blight-causing microorganisms; assay: Anti-bacterial effect on wheat leaf blight-causing microorganisms (PDA plate, mycelial growth inhibition); type: cell-based, Septoria tritici; conditions: 1.25 mg/L in PDA plate medium, 25° C., 14 days
Protocol: In Test Examples, an anti-bacterial effect of a compound in accordance with the present invention on the wheat leaf blight-causing microorganisms was tested, and was compared with the anti-bacterial effect of a comparative compound (1).
A dimethyl sulfoxide solution (0.6 ml) containing a compound in accordance with the present invention was added to a PDA medium (potato dextrose agar medium) (60 ml) having about 60° C., and the resultant mixture was mixed thoroughly in a 100-ml conical flask. The mixture was poured into a dish, and was solidified. […]
On the other hand, a subject microorganism previously cultured on a plate medium was cut out with use of a cork borer whose diameter was 4 mm, and the wheat leaf blight-causing microorganism on the plate medium thus cut out was inoculated to the chemical-containing plate medium described above. After such inoculation, the chemical-containing plate medium was incubated at 25° C. for 14 days, and then diameters of its flora were measured. A % mycelial growth inhibition was calculated with use of the formula. R=100(dc−dt)/dc (where R=% mycelial extension inhibition, dc=flora diameter in untreated plate, dt=flora diameter in treated plate)
The results obtained as described above were evaluated on a five-point scale according to the following criteria.
• 5: % Mycerial growth inhibition of 80% or higher • 4: % Mycerial growth inhibition of less than 80 to 60% or higher • 3: % Mycerial growth inhibition of less than 60 to 40% or higher • 2: % Mycerial growth inhibition of less than 40 to 20% or higher • 1: % Mycerial growth inhibition of less than 20%

[2] = test system: Rice blast (Pyricularia oryzae); type: cell-based
[3] = test system: wheat-brown-rust-causing microorganisms; assay: Controlling effect on wheat brown rust (spray, pot test); type: in vivo, Puccinia recondita; conditions: 1 mg/L sprayed at 1,000 L/ha, wheat NORIN No. 61, 9 to 14 days after inoculation
Protocol: Onto a wheat plant (cultivar: NORIN No. 61) grown to the two-leaf stage with use of a square plastic pot (6 cm×6 cm), a wettable formulation such as Formulation Example 1 which was diluted and suspended in water at a concentration of 1 mg/L was sprayed at a rate of 1,000 L/ha. The sprayed leaves were air-dried, and inoculated with spore suspension of wheat-brown-rust-causing microorganisms (adjusted at 200 spores/vision, […] was added at 60 ppm) by spraying, and kept at 25° C. and a high humidity for 48 hours. Thereafter, the plant was kept in a greenhouse. Nine to fourteen days after inoculation, the wheat brown rust lesion degree was evaluated. The protective value was calculated by the following equation. Protective value (%)=(1-mean lesion degree in sprayed plot/mean lesion degree in unsprayed plot)×100 [table] [table]

[4] = test system: Gray mold (Botritis cinerea); assay: Anti-bacterial effect on various microorganisms (plate medium), B.c; type: cell-based
[5] = test system: Sclerotinia rot (Sclerotinia sclerotiorum); assay: Anti-bacterial effect on various microorganisms (plate medium), S.s; type: cell-based
[6] = test system: Alternaria blotch (Alternaria alternata); assay: Anti-bacterial effect on various microorganisms (plate medium), A.m; type: cell-based
[7] = test system: Cucumber fusarium wilt (Fusarium oxysporum); assay: Anti-bacterial effect on various microorganisms (plate medium), F.c; type: cell-based
[8] = test system: Wheat Septoria nodorum blotch microorganism (Phaeosphaeria nodorum); assay: Anti-bacterial effect on various microorganisms (plate medium), P.n; type: cell-based
[9] = test system: Wheat pink snow mold (Microdochium nivale); assay: Anti-bacterial effect on various microorganisms (plate medium), M.n; type: cell-based
[10] = test system: Wheat fusarium blight (Fusarium graminearum); type: cell-based
[11] = test system: Barley leaf blotch (Rhynchosporium secalis); assay: Anti-bacterial effect on various microorganisms (plate medium), R. sec; type: cell-based
[12] = test system: Rice bacterial seeding blight (Rhizopus oryzae); assay: Anti-bacterial effect on various microorganisms (plate medium), R.o; type: cell-based
[13] = test system: Rice bakanae disease (Giberella fujikuroi); assay: Anti-bacterial effect on various microorganisms (plate medium), G.f; type: cell-based
[14] = test system: Barley loose smut (Ustilago nuda); assay: Anti-bacterial effect on various microorganisms (plate medium), U.n; type: cell-based
[15] = test system: Wheat eye spot (Pseudocercoporella herpotrichoides); assay: Anti-bacterial effect on various microorganisms (plate medium), P.h; type: cell-based

Compound	Growth inhibition grade [1]	Growth inhibition grade P.o ([2]; 1.25 mg/L)	Growth inhibition grade P.o ([2]; 5 mg/L)	Protective value [3]	Growth inhibition grade B.c ([4]; 1.25 mg/L)	Growth inhibition grade B.c ([4]; 5 mg/L)	Growth inhibition grade S.s ([5]; 1.25 mg/L)	Growth inhibition grade S.s ([5]; 5 mg/L)	Growth inhibition grade A.m ([6]; 1.25 mg/L)	Growth inhibition grade A.m ([6]; 5 mg/L)	Growth inhibition grade F.c ([7]; 1.25 mg/L)	Growth inhibition grade F.c ([7]; 5 mg/L)	Growth inhibition grade P.n ([8]; 1.25 mg/L)	Growth inhibition grade P.n ([8]; 5 mg/L)	Growth inhibition grade M.n ([9]; 1.25 mg/L)	Growth inhibition grade M.n ([9]; 5 mg/L)	Growth inhibition grade F.g ([10]; 1.25 mg/L)	Growth inhibition grade F.g ([10]; 5 mg/L)	Growth inhibition grade R. sec ([11]; 1.25 mg/L)	Growth inhibition grade R. sec ([11]; 5 mg/L)	also measured
CCOC[C@]1(CCl)CC[C@@H](Cc2ccc(F)cc2)[C@]1(O)Cn1cncn1 (racemic) [Compound I-226, (1RS,2RS,5SR)-5-(4-fluorobenzyl)-2-chloromethyl-2-ethoxymethyl-1H-[1,2,4]triazole-1-ylmethylcyclopentanol]	5 (% Mycerial growth inhibition of 80% or higher)	5 (% Mycerial growth inhibition of 80% or higher)	5 (% Mycerial growth inhibition of 80% or higher)	4 (61 to 80)	5 (% Mycerial growth inhibition of 80% or higher)	5 (% Mycerial growth inhibition of 80% or higher)	5 (% Mycerial growth inhibition of 80% or higher)	5 (% Mycerial growth inhibition of 80% or higher)	4 (% Mycerial growth inhibition of less than 80 to 60% or higher)	5 (% Mycerial growth inhibition of 80% or higher)	5 (% Mycerial growth inhibition of 80% or higher)	5 (% Mycerial growth inhibition of 80% or higher)	5 (% Mycerial growth inhibition of 80% or higher)	5 (% Mycerial growth inhibition of 80% or higher)	5 (% Mycerial growth inhibition of 80% or higher)	5 (% Mycerial growth inhibition of 80% or higher)	5 (% Mycerial growth inhibition of 80% or higher)	5 (% Mycerial growth inhibition of 80% or higher)	5 (% Mycerial growth inhibition of 80% or higher)	5 (% Mycerial growth inhibition of 80% or higher)	Growth inhibition grade R.o ([12]; 1.25 mg/L): 5 (% Mycerial growth inhibition of 80% or higher); Growth inhibition grade R.o ([12]; 5 mg/L): 5 (% Mycerial growth inhibition of 80% or higher); Growth inhibition grade G.f ([13]; 1.25 mg/L): 5 (% Mycerial growth inhibition of 80% or higher); Growth inhibition grade G.f ([13]; 5 mg/L): 5 (% Mycerial growth inhibition of 80% or higher); Growth inhibition grade U.n ([14]; 1.25 mg/L): 5 (% Mycerial growth inhibition of 80% or higher); Growth inhibition grade U.n ([14]; 5 mg/L): 5 (% Mycerial growth inhibition of 80% or higher); Growth inhibition grade P.h ([15]; 1.25 mg/L): 4 (% Mycerial growth inhibition of less than 80 to 60% or higher); Growth inhibition grade P.h ([15]; 5 mg/L): 5 (% Mycerial growth inhibition of 80% or higher)
CCOC[C@]1(CCl)CC[C@@H](Cc2ccccc2)[C@]1(O)Cn1cncn1 (racemic) [Compound I-234, (1RS,2RS,5SR)-5-benzyl-2-chloromethyl-2-ethoxymethyl-1H-[1,2,4]triazole-1-ylmethylcyclopentanol]	5 (% Mycerial growth inhibition of 80% or higher)	5 (% Mycerial growth inhibition of 80% or higher)	5 (% Mycerial growth inhibition of 80% or higher)	4 (61 to 80)	5 (% Mycerial growth inhibition of 80% or higher)	5 (% Mycerial growth inhibition of 80% or higher)	5 (% Mycerial growth inhibition of 80% or higher)	5 (% Mycerial growth inhibition of 80% or higher)	4 (% Mycerial growth inhibition of less than 80 to 60% or higher)	5 (% Mycerial growth inhibition of 80% or higher)	5 (% Mycerial growth inhibition of 80% or higher)	5 (% Mycerial growth inhibition of 80% or higher)	5 (% Mycerial growth inhibition of 80% or higher)	5 (% Mycerial growth inhibition of 80% or higher)	5 (% Mycerial growth inhibition of 80% or higher)	5 (% Mycerial growth inhibition of 80% or higher)	5 (% Mycerial growth inhibition of 80% or higher)	5 (% Mycerial growth inhibition of 80% or higher)	5 (% Mycerial growth inhibition of 80% or higher)	5 (% Mycerial growth inhibition of 80% or higher)	Growth inhibition grade R.o ([12]; 1.25 mg/L): 5 (% Mycerial growth inhibition of 80% or higher); Growth inhibition grade R.o ([12]; 5 mg/L): 5 (% Mycerial growth inhibition of 80% or higher); Growth inhibition grade G.f ([13]; 1.25 mg/L): 5 (% Mycerial growth inhibition of 80% or higher); Growth inhibition grade G.f ([13]; 5 mg/L): 5 (% Mycerial growth inhibition of 80% or higher); Growth inhibition grade U.n ([14]; 1.25 mg/L): 5 (% Mycerial growth inhibition of 80% or higher); Growth inhibition grade U.n ([14]; 5 mg/L): 5 (% Mycerial growth inhibition of 80% or higher); Growth inhibition grade P.h ([15]; 1.25 mg/L): 4 (% Mycerial growth inhibition of less than 80 to 60% or higher); Growth inhibition grade P.h ([15]; 5 mg/L): 5 (% Mycerial growth inhibition of 80% or higher)

From US9241488B2, “Azole derivative, method for producing azole derivative, and intermediate compound” (KUREHA CORPORATION, priority 2011, dated 2016)
